From patent publication US9938286B2, “Nalmefene salts as medicaments for reducing alcohol consumption or for preventing excessive alcohol consumption” (H. Lundbeck A/S, priority 2013, dated 2018)
Structures can show the parent of a compound that is named as a salt. Where two headings read alike, the source gives them in different places.

Legend:
[1] = precipitated/crystallized from ethanol, Brittain 1996, cited from earlier work
[2] = Brittain 1996, WO 2010/063292, cited from earlier work
[3] = Thermodynamic aqueous solubility in pure water (shaking, HPLC); conditions: for pH: aqueous solubility sample in pure water; for pH / Solubility (mg base/mL), aqueous: 23° C. ± 2°; for Solubility (mg base/mL), aqueous: pure water, normalised to nalmefene free base
[4] = Attempt to form solvates: precipitation from organic solvents, XRPD of precipitate; type: physicochemical; conditions: for solvate formation from the organic solvents assessed: EtOH, MeOH, IPA, EtOAc, acetone, ACN, THF, MIBK, toluene and 2.2.2-trifluoroethanol, room temperature, atmospheric pressure; for solvate formation from EtOH: precipitated from EtOH
Source text: A “solvate” indicates a crystalline material with solvent molecules incorporated into the crystal lattice. In the present context, when referring to “solvents” these are limited to non-aqueous solvents, preferably organic solvents. Solvents assessed for solvate formation according to the invention includes the following: ethanol (EtOH), methanol (MeOH), isopropanol (IPA), ethyl acetate (EtOAc), acetone, acetonitrile (ACN), tetrahydrofurane (THF), methyl isobutyl ketone (MIBK), toluene and 2,2,2-trifluoroethanol.
The clear supernatant was diluted and assayed by HPLC. All precipitates were analyzed by XRPD.

[5] = Dynamic vapour sorption (DVS), water absorption; type: physicochemical
Method: Dynamic vapour sorption experiments were performed using a SMS DVS advantage 01 changing the relative humidity from 30-40% RH up to 90-95% RH in steps of 10%RH.

[6] = Attempt to form hydrates: precipitation from pure water, XRPD of precipitate; type: physicochemical; conditions: precipitated from pure water at room temperature and atmospheric pressure
Source text: A “hydrate” indicates a crystalline material with water (H2O) molecules incorporated into the crystal lattice. More particularly, a “non-hydrate forming salt” of nalmefene indicates a salt of which any isolated crystal form contains less than 25 mol % water, such as less than 20 mol % water, such as less than 15 mol % water, such as less than 10 mol % water, such as less than 5 mol % water, such as less than 4, 3, 2 or 1 mol % water, such as substantially no water in the crystal lattice of said salt.

δ receptor = δ receptor (Homo sapiens, UniProt P41143); conditions: in vitro studies; cited from earlier work
μ receptor = μ receptor (Homo sapiens, UniProt P35372); conditions: in vitro studies; cited from earlier work
κ receptor = κ receptor (Homo sapiens, UniProt P41145); conditions: in vitro studies; cited from earlier work
[7] = Solubility in organic solvents (HPLC); conditions: 23° C. ± 2°
Method: The suspensions were heated with the purpose of obtaining complete dissolution and then cooled to room temperature and left for equilibrium to be attained. The clear supernatant was diluted and assayed by HPLC. All precipitates were analyzed by XRPD.
For comparison, the solvate formation from nalmefene hydrochloride was also investigated.

Sequence of κ receptor (P41145 whole entry): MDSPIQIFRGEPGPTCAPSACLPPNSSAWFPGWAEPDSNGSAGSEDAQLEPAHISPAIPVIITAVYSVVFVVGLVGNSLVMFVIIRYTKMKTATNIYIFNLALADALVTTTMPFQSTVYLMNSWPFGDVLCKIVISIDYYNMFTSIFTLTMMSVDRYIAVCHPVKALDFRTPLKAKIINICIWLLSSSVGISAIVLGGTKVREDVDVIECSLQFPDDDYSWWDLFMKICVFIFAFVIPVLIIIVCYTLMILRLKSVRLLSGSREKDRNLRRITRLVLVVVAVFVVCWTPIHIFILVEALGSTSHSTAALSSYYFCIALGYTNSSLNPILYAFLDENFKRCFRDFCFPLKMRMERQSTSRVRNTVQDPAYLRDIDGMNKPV
Sequence of μ receptor (P35372 whole entry): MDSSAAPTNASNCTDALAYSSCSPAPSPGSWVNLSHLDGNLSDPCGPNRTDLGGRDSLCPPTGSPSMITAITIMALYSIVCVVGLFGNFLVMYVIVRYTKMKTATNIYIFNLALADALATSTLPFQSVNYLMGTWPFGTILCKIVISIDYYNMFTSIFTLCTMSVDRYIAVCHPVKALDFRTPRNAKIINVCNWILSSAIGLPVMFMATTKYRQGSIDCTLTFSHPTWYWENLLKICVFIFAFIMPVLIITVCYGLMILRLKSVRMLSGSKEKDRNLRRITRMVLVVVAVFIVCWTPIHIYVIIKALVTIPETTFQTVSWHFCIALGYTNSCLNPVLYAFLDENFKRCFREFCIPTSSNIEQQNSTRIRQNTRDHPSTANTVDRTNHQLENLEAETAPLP
Sequence of δ receptor (P41143 whole entry): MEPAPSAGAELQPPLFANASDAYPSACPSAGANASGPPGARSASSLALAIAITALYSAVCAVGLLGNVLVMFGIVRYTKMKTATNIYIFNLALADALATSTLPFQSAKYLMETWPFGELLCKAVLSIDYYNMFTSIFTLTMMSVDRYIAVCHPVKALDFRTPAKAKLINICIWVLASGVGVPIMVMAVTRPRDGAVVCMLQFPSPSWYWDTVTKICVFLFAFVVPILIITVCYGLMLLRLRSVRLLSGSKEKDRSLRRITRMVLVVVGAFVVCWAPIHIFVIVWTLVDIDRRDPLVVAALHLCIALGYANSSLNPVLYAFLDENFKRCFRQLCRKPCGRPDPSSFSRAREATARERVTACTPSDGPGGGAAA

## C=C1CC[C@@]2(O)[C@H]3Cc4ccc(O)c5c4[C@@]2(CCN3CC2CC2)[C@H]1O5 [nalmefene hydrochloride]
[1]
  solvate formation from ethanol (literature): form solvate
[1]; listed as Nalmefene hydrochloride
  solvate formation from ethanol (literature): ethanol solvate
[2]; listed as HCl salt of nalmefene
  hydrate formation / thermodynamically stable form (literature): only thermodynamically stable in hydrated or solvated form
[2]; listed as nalmefene hydrochloride salt
  hydrate formation / thermodynamically stable form (literature): hydrate-forming salt
[3]; unpublished data
  aqueous solubility of the known hydrochloride salt: 109 mg base/mL
[4]; listed as hydrochloride salt
  solvate formation from the organic solvents assessed: formed solvate from all the organic solvents

## C=C1CC[C@@]2(O)[C@H]3Cc4ccc(O)c5c4[C@@]2(CCN3CC2CC2)[C@H]1O5.O=C(O)/C=C/C(=O)O
[5]
  % abs. at 90% RH (water absorption determined by DVS): 0.6%
[6]
  hydrate formation: not to form hydrates
[4]; precipitated from 2,2,2-trifluoroethanol
  solvate formation from 2,2,2-trifluoroethanol: formed solvate

## L-lactate
[5]
  % abs. at 90% RH (water absorption determined by DVS): 1.2%
[6]
  hydrate formation: corresponds to a monohydrate
[4]
  solvate formation from the organic solvents assessed: No solvates were formed

## C1=Cc2cccc(OC[C@H]3CNCCO3)c2C1.O=S(=O)(O)c1ccccc1 [Benzene sulfonate]
[5]
  % abs. at 90% RH (water absorption determined by DVS): <0.2%
[3]
  pH: 3.12
[6]
  hydrate formation: not to form hydrates
[4]
  solvate formation from EtOH: solvate
[4]; listed as benzene sulfonate salt
  solvate formation from EtOH: formed solvate
[4]; precipitated from THF
  solvate formation from THF: formed solvate

## C=C1CC[C@@]2(O)[C@H]3Cc4ccc(O)c5c4[C@@]2(CCN3CC2CC2)[C@H]1O5 [nalmefene, 17-(cyclopropylmethyl)-4,5-alpha-epoxy-6-methylenemorphinan-3,14-diol]
δ receptor
  activity at the δ receptor: antagonist activity
μ receptor
  activity at the μ receptor: antagonist activity
κ receptor
  activity at the κ receptor: partial agonist activity

## C=C1CC[C@@]2(O)[C@H]3Cc4ccc(O)c5c4[C@@]2(CCN3CC2CC2)[C@H]1O5.O=C(O)/C=C\C(=O)O [Hydrogen maleate]
[5]
  % abs. at 90% RH (water absorption determined by DVS): 0.2%
[6]
  hydrate formation: not to form hydrates
[4]
  solvate formation from the organic solvents assessed: No solvates were formed

## C=C1CC[C@@]2(O)[C@H]3Cc4ccc(O)c5c4[C@@]2(CCN3CC2CC2)[C@H]1O5.O=C(O)CCCCC(=O)O
[5]
  % abs. at 90% RH (water absorption determined by DVS): 0.35%
[6]
  hydrate formation: not to form hydrates
[4]
  solvate formation from the organic solvents assessed: No solvates were formed

## O=C(O)c1ccccc1O [Salicylate]
[5]
  % abs. at 90% RH (water absorption determined by DVS): 0.4%
[3]
  pH: 7.14
  Solubility (mg base/mL), aqueous: 3.0 mg base/mL
[3]; listed as salicylate salt
  Solubility (mg base/mL), aqueous: 3 mg base/mL
[6]
  hydrate formation: not to form hydrates
[4]; precipitated from IPA
  solvate formation from IPA: formed solvate
[7]; 2,2,2-trifluoroethanol, * = precipitated as solvate
  Solubility in 2,2,2-trifluoro-EtOH: 120 mg base/mL
[7]; ACN
  Solubility in ACN: 8.2 mg base/mL
[7]; EtOAc
  Solubility in EtOAc: 2.0 mg base/mL
[7]; EtOH, * = precipitated as solvate
  Solubility in EtOH: 19 mg base/mL
[7]; IPA, * = precipitated as solvate
  Solubility in IPA: 0.5* mg base/mL
[7]; MIBK
  Solubility in MIBK: 2.9 mg base/mL
[7]; MeOH, * = precipitated as solvate
  Solubility in MeOH: 91 mg base/mL
[7]; THF
  Solubility in THF: 35 mg base/mL
[7]; acetone
  Solubility in acetone: 9.7 mg base/mL

## C=C1CC[C@@]2(O)[C@H]3Cc4ccc(O)c5c4[C@@]2(CCN3CC2CC2)[C@H]1O5.O=C(O)CC(=O)O
[5]
  % abs. at 90% RH (water absorption determined by DVS): 0.35%
[6]
  hydrate formation: not to form hydrates
[4]; precipitated from MeOH
  solvate formation from MeOH: formed solvate
